Reference: US20150299219A1, “BICYCLIC PYRAZOLONE COMPOUNDS AND METHODS OF USE” (Calitor Sciences, LLC, priority 2014, published 2015)

Columns and labels:
Type in all cases: biochemical
c-Met (h) = biological target: T1, c-Met (h) (Homo sapiens, UniProt P08581); test: c-Met (h) kinase assay
T1 construct: purchased Millipore UK Ltd
Experimental: Kinase assays can be performed by measurement of incorporation of γ-^33P ATP into immobilized myelin basic protein (MBP). High binding white 384 well plates (Greiner) are coated with MBP (Sigma #M-1891) by incubation of 60 μL/well of 20 μg/mL MBP in Tris-buffered saline (TBS; 50 mM Tris pH 8.0, 138 mM NaCl, 2.7 mM KCl) for 24 h at 4° C. Plates are washed 3× with 100 μL TBS. Kinase reactions are carried out in a total volume of 34 μL in kinase buffer (5 mM Hepes pH 7.6, 15 mM NaCl, 0.01% bovine gamma globulin (Sigma #I-5506), 10 mM MgCl2, 1 mM DTT, 0.02% TritonX-100). Compound dilutions are performed in DMSO and added to assay wells to a final DMSO concentration of 1%. Each data point is measured in duplicate, and at least two duplicate assays are performed for each individual compound determination. Enzyme is added to final concentrations of 10 nM or 20 nM, for example. A mixture of unlabeled ATP and γ-^33P ATP is added to start the reaction (2×10^6 cpm of γ-^33P ATP per well (3000 Ci/mmole) and 10 μM unlabeled ATP, typically. The reactions are carried out for 1 h at room temperature with shaking. Plates are washed 7× with TBS, followed by the addition of 50 μL/well scintillation fluid (Wallac). Plates are read using a Wallac Trilux counter. This is only one format of such assays; various other formats are possible, as known to one skilled in the art.
(§1) The above assay procedure can be used to determine the IC50 for inhibition and/or the inhibition constant, Ki. The IC50 is defined as the concentration of compound required to reduce the enzyme activity by 50% under the condition of the assay. The IC50 value is estimated by preparing a 10 point curve using a 1/2 log dilution series (for example, a typical curve may be prepared using the following compound concentrations: 10 μM, 3 μM, 1 μM, 0.3 μM, 0.1 μM, 0.03 μM, 0.01 μM, 0.003 μM, 0.001 μM and 0 μM).
(§2) Met (h) is incubated with 8 mM MOPS pH 7.0, 0.2 mM EDTA, 250 μM KKKSPGEYVNIEFG, 10 mM MgAcetate and [γ-^33P-ATP] (specific activity approx. 500 cpm/pmol, concentration as required). The reaction is initiated by the addition of the MgATP mix. After incubation for 40 minutes at room temperature, the reaction is stopped by the addition of 3% phosphoric acid solution. 10 μL of the reaction is then spotted onto a P30 filtermat and washed three times for 5 minutes in 75 mM phosphoric acid and once in methanol prior to drying and scintillation counting.
(§3) The kinase assays described herein were performed at Millipore UK Ltd, Dundee Technology Park, Dundee DD2 1SW, UK.

Axl (h) = biological target: T2, Axl (h) (Homo sapiens, UniProt P30530); test: Axl (h) kinase assay
T2 construct: purchased Millipore UK Ltd
T2 sequence (P30530 26-894): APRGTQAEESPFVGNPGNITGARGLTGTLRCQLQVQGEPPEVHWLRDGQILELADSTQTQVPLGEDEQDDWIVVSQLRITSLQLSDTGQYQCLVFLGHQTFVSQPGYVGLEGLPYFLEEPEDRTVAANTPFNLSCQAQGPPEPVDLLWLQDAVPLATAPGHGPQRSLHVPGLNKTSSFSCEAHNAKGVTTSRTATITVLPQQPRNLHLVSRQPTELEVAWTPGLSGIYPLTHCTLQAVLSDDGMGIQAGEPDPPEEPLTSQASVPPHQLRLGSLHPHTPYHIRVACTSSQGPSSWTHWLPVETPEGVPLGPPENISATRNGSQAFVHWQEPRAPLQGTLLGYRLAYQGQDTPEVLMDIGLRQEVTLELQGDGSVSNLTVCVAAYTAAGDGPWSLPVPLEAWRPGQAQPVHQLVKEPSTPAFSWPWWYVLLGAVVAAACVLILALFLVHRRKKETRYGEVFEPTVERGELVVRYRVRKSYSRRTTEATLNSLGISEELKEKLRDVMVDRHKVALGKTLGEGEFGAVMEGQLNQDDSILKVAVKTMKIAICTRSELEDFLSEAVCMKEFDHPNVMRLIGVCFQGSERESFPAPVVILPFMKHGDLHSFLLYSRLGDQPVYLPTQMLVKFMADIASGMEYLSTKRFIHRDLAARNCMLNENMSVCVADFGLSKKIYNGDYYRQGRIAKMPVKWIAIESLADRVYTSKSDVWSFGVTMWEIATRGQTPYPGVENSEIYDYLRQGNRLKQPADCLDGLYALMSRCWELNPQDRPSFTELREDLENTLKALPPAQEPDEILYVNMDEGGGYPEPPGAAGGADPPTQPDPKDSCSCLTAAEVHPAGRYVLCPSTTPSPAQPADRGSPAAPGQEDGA
Experimental: as §1
as §2, with “Axl” for “Met”, “KKSRGDYMTMQIG,” for “KKKSPGEYVNIEFG,”
as §3

Mer (h) = biological target: T3, Mer (h) (Homo sapiens, UniProt Q12866); test: Mer (h) kinase assay
T3 construct: purchased Millipore UK Ltd
T3 sequence (Q12866 21-999): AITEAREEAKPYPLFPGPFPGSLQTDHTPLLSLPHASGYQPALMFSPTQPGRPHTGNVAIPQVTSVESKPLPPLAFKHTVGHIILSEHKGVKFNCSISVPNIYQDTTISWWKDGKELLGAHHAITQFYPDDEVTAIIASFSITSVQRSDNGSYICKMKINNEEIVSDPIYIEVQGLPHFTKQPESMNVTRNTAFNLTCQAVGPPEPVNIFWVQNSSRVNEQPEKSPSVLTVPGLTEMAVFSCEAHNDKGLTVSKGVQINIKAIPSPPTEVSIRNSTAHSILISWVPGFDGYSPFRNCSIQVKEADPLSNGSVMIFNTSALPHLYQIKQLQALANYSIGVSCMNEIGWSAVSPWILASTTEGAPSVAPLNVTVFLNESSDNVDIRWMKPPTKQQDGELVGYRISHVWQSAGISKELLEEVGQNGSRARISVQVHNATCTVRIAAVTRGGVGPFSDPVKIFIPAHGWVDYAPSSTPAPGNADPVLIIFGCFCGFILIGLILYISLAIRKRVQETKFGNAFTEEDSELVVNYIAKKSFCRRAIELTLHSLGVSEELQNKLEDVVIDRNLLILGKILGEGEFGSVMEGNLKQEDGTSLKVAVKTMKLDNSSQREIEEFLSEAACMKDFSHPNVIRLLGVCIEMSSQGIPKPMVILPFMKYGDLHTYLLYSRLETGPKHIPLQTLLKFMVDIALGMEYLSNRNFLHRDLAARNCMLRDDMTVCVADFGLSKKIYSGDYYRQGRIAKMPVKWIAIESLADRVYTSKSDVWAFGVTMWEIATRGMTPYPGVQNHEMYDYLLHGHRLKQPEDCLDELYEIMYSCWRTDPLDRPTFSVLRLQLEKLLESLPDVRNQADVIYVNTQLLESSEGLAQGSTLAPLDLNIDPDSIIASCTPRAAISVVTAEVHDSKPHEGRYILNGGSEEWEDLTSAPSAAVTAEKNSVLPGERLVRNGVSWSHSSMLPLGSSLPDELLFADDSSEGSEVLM
Experimental: as §1
as §2, with “Mer” for “Met”, “EDTA, 30 mM NaCl,” for “EDTA,”, “GGMEDIYFEFMGGKKK,” for “KKKSPGEYVNIEFG,”
as §3

T1 sequence (P08581 25-1390): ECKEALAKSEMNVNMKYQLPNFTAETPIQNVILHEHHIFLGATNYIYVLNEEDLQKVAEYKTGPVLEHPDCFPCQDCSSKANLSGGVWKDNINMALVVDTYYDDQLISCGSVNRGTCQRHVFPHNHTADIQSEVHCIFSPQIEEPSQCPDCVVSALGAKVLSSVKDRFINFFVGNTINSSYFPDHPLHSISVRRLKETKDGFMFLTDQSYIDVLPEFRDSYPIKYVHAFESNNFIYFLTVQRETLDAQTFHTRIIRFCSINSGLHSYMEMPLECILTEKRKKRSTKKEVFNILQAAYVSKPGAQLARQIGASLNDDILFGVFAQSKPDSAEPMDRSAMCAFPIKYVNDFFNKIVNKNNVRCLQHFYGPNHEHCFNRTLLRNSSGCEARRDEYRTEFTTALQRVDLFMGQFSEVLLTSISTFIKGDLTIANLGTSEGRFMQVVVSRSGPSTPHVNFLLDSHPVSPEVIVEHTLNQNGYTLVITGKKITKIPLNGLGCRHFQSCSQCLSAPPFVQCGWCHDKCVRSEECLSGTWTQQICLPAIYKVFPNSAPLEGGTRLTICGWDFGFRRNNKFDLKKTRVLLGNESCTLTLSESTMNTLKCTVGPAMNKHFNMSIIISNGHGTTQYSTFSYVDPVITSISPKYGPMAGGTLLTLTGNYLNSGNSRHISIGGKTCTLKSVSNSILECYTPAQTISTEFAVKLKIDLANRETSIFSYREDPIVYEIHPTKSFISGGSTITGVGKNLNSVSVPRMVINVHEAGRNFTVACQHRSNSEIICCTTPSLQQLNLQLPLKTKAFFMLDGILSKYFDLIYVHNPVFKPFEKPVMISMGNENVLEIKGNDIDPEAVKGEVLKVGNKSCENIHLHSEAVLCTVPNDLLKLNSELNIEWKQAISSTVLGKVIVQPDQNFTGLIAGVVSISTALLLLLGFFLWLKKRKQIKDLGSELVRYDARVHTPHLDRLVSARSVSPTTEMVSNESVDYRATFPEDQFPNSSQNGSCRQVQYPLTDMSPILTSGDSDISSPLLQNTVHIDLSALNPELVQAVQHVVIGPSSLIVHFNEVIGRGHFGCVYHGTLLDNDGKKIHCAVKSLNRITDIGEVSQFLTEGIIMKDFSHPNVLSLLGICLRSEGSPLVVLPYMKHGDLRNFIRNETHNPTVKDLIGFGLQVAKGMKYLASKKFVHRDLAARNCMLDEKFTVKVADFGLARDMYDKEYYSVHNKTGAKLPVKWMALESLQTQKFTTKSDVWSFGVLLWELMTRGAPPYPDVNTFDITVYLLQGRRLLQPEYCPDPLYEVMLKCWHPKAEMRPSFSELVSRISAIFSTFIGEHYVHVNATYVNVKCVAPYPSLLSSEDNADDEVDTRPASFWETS

Compound | IC50 (c-Met (h)) [µM] | IC50 (Axl (h)) [µM] | IC50 (Mer (h)) [µM]
O=C(Nc1ccc(Oc2ccnc(NC(=O)C3CC3)c2)c(F)c1)c1c2n(n(-c3ccccc3)c1=O)CCOC2 [Ex. 17, N-(4-((2-(cyclopropanecarboxamido)pyridin-4-yl)oxy)-3-fluorophenyl)-2-oxo-1-phenyl-2,4,6,7-tetrahydro-1H-pyrazolo[5,1-c][1,4]oxazine-3-carboxamide] | 0.008 | 0.005 | 
Nc1nccc(Oc2ccc(NC(=O)c3c4n(n(-c5ccccc5)c3=O)CCCC4)cc2)c1Cl [Ex. 22, N-(4-((2-amino-3-chloropyridin-4-yl)oxy)phenyl)-2-oxo-1-phenyl-1,2,4,5,6,7-hexahydropyrazolo[1,5-a]pyridine-3-carboxamide] | 0.054 | 0.016 | 
O=C(Nc1ccc(Oc2ccnc(NC(=O)C3CC3)c2)c(F)c1)c1c2n(n(-c3ccccc3)c1=O)CCC2 [Ex. 5, N-(4-((2-(cyclopropanecarboxamido)pyridin-4-yl)oxy)-3-fluorophenyl)-2-oxo-1-phenyl-2,4,5,6-tetrahydro-1H-pyrrolo[1,2-b]pyrazole-3-carboxamide] | 0.015 | 0.019 | 0.004
CC(=O)Nc1cc(Oc2ccc(NC(=O)c3c4n(n(-c5ccccc5)c3=O)CCOC4)cc2)ccn1 [Ex. 20, N-(4-((2-acetamidopyridin-4-yl)oxy)phenyl)-2-oxo-1-phenyl-2,4,6,7-tetrahydro-1H-pyrazolo[5,1-c][1,4]oxazine-3-carboxamide] |  | 0.049 | 0.044
Nc1nccc(Oc2ccc(NC(=O)c3c4n(n(-c5ccccc5)c3=O)CCCC4)cc2F)c1Cl [Ex. 23, N-(4-((2-amino-3-chloropyridin-4-yl)oxy)-3-fluorophenyl)-2-oxo-1-phenyl-1,2,4,5,6,7-hexahydropyrazolo[1,5-a]pyridine-3-carboxamide] | 0.03 | 0.01 | 0.014
Nc1nccc(Oc2ccc(NC(=O)c3c4n(n(-c5ccccc5)c3=O)CCCC4)nc2)c1Cl [Ex. 21, N-(5-((2-amino-3-chloropyridin-4-yl)oxy)pyridin-2-yl)-2-oxo-1-phenyl-1,2,4,5,6,7-hexahydropyrazolo[1,5-a]pyridine-3-carboxamide] | 0.014 | 0.009 | 

Continued by falling IC50 (Axl (h)), values first:

IC50 (c-Met (h)) [µM] | IC50 (Axl (h)) [µM] | IC50 (Mer (h)) [µM] | Compound
0.057 | 0.036 | 0.033 | CC(=O)Nc1cc(Oc2ccc(NC(=O)c3c4n(n(-c5ccccc5)c3=O)CCC4)cc2F)ccn1 [Ex. 6, N-(4-((2-acetamidopyridin-4-yl)oxy)-3-fluorophenyl)-2-oxo-1-phenyl-2,4,5,6-tetrahydro-1H-pyrrolo[1,2-b]pyrazole-3-carboxamide]
0.027 | 0.014 | 0.012 | CC(=O)Nc1cc(Oc2ccc(NC(=O)c3c4n(n(-c5ccccc5)c3=O)CCCC4)nc2)ccn1 [Ex. 9, N-(5-((2-acetamidopyridin-4-yl)oxy)pyridin-2-yl)-2-oxo-1-phenyl-1,2,4,5,6,7-hexahydropyrazolo[1,5-a]pyridine-3-carboxamide]
0.005 | 0.007 | 0.003 | O=C(Nc1ccc(Oc2ccnc(NC(=O)C3CC3)c2)cn1)c1c2n(n(-c3ccccc3)c1=O)CCCC2 [Ex. 8, N-(5-((2-(cyclopropanecarboxamido)pyridin-4-yl)oxy)pyridin-2-yl)-2-oxo-1-phenyl-1,2,4,5,6,7-hexahydropyrazolo[1,5-a]pyridine-3-carboxamide]
0.012 | 0.005 | 0.006 | O=C(Nc1ccc(Oc2ccnc(NC(=O)C3CC3)c2)cn1)c1c2n(n(-c3ccccc3)c1=O)CCOC2 [Ex. 11, N-(5-((2-(cyclopropanecarboxamido)pyridin-4-yl)oxy)pyridin-2-yl)-2-oxo-1-phenyl-2,4,6,7-tetrahydro-1H-pyrazolo[5,1-c][1,4]oxazine-3-carboxamide]
